# Experimental data as given in the supplement of paper PMC10307832.
# Assays:
# Assay in all cases: relative viability (nuclei count vs DMSO), 5 days (fraction); higher = more cells survive
# [1] = compound: C1=CC=C2C(=C1)C=CC(=C2SSC3=C(C=CC4=CC=CC=C43)O)O [IPA-3]
# Procedure, shortened: (§1)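 Lung cancer cell lines were seeded into 1536-well plates, kept overnight at 37 °C and pinned with five library-drug doses (not always all listed) spaced by √10. After 5 days, nuclei were Hoechst-stained, imaged at 4× and counted with MetaXpress. Viability is treated-well nuclei over vehicle-well nuclei, taken as a median across plates. Plates needed control CV below 25% and at least one doubling.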
# [2] = compound: Cc1ccc(-n2nc(C(C)(C)C)cc2NC(=O)Nc2ccc(OCCN3CCOCC3)c3ccccc23)cc1 [Doramapimod]
# Procedure, shortened: as §1
# [3] = compound: Cn1c(Nc2ccc(C(F)(F)F)cc2)nc2cc(Oc3ccnc(-c4ncc(C(F)(F)F)[nH]4)c3)ccc21 [RAF265]
# Procedure, shortened: as §1
# [4] = compound: Cc1ccc(-n2nc(C(C)(C)C)cc2NC(=O)Nc2ccc(OCCN3CCOCC3)c3ccccc23)cc1 [Doramapimod] + C[C@@H](Oc1cc(-c2cnn(C3CCNCC3)c2)cnc1N)c1c(Cl)ccc(F)c1Cl [Crizotinib] (partner 1 µM)
# Procedure, shortened: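 Dosing by pin tool came one day after lung cancer cell lines were seeded in 1536-well plates, using either one drug or a fixed anchor-drug dose plus five library-drug doses (not always all listed) in √10 steps. After 5 days, nuclei were counted on 4× images. Relative viability is treated-well nuclei count divided by vehicle-well nuclei count, and values are medians of duplicate plates.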
cell line,measurement,setting,value
NCI-H1915,relative viability,[1]; 0.2 µM,1.1
same,relative viability,[1]; 0.6325 µM,0.997
same,relative viability,[1]; 2 µM,0.989
same,relative viability,[1]; 6.325 µM,0.96
same,relative viability,[1]; 20 µM,1.01
same,relative viability,[2]; 0.02 µM,0.986
same,relative viability,[2]; 0.06325 µM,0.994
same,relative viability,[2]; 0.2 µM,1.04
same,relative viability,[2]; 0.6325 µM,0.99
same,relative viability,[2]; 2 µM,0.885
same,relative viability,[3]; 0.01 µM,0.987
same,relative viability,[3]; 0.03162 µM,0.915
same,relative viability,[3]; 0.1 µM,0.757
same,relative viability,[3]; 0.3162 µM,0.489
same,relative viability,[3]; 1 µM,0.3
same,relative viability,[4]; first compound 0.02 µM,0.907
same,relative viability,[4]; first compound 0.06325 µM,0.894
same,relative viability,[4]; first compound 0.2 µM,0.915
same,relative viability,[4]; first compound 0.6325 µM,0.918
same,relative viability,[4]; first compound 2 µM,0.779
NCI-H1944,relative viability,[1]; 0.2 µM,1.05
same,relative viability,[1]; 0.6325 µM,0.897
same,relative viability,[1]; 2 µM,0.953
same,relative viability,[1]; 6.325 µM,1.11
same,relative viability,[1]; 20 µM,0.955
same,relative viability,[2]; 0.02 µM,0.891
same,relative viability,[2]; 0.06325 µM,0.994
same,relative viability,[2]; 0.2 µM,0.935
same,relative viability,[2]; 0.6325 µM,1.19
same,relative viability,[2]; 2 µM,0.878
same,relative viability,[3]; 0.01 µM,1.06
same,relative viability,[3]; 0.03162 µM,1.13
same,relative viability,[3]; 0.1 µM,0.972
same,relative viability,[3]; 0.3162 µM,0.755
same,relative viability,[3]; 1 µM,0.667
same,relative viability,[4]; first compound 0.02 µM,1.09
same,relative viability,[4]; first compound 0.06325 µM,0.993
same,relative viability,[4]; first compound 0.2 µM,1.14
same,relative viability,[4]; first compound 0.6325 µM,1.16
same,relative viability,[4]; first compound 2 µM,1.11
NCI-H1975,relative viability,[1]; 0.2 µM,1.06
same,relative viability,[1]; 0.6325 µM,0.924
same,relative viability,[1]; 2 µM,0.957
same,relative viability,[1]; 6.325 µM,1.1
same,relative viability,[1]; 20 µM,0.993
same,relative viability,[2]; 0.02 µM,1.03
same,relative viability,[2]; 0.06325 µM,1.04
same,relative viability,[2]; 0.2 µM,1.08
same,relative viability,[2]; 0.6325 µM,1.05
same,relative viability,[2]; 2 µM,1.04
same,relative viability,[3]; 0.01 µM,0.932
same,relative viability,[3]; 0.03162 µM,0.956
same,relative viability,[3]; 0.1 µM,0.602
same,relative viability,[3]; 0.3162 µM,0.442
same,relative viability,[3]; 1 µM,0.406
same,relative viability,[4]; first compound 0.02 µM,1.05
same,relative viability,[4]; first compound 0.06325 µM,0.944
same,relative viability,[4]; first compound 0.2 µM,0.897
same,relative viability,[4]; first compound 0.6325 µM,0.973
same,relative viability,[4]; first compound 2 µM,0.96
NCI-H1993,relative viability,[1]; 0.2 µM,0.981
same,relative viability,[1]; 0.6325 µM,0.99
same,relative viability,[1]; 2 µM,0.873
same,relative viability,[1]; 6.325 µM,0.97
same,relative viability,[1]; 20 µM,1.01
same,relative viability,[2]; 0.02 µM,1.06
same,relative viability,[2]; 0.06325 µM,0.941
same,relative viability,[2]; 0.2 µM,0.852
same,relative viability,[2]; 0.6325 µM,1.14
same,relative viability,[2]; 2 µM,0.864
same,relative viability,[3]; 0.01 µM,1.04
same,relative viability,[3]; 0.03162 µM,0.94
same,relative viability,[3]; 0.1 µM,1
same,relative viability,[3]; 0.3162 µM,0.799
same,relative viability,[3]; 1 µM,0.794
same,relative viability,[4]; first compound 0.02 µM,0.739
same,relative viability,[4]; first compound 0.06325 µM,0.788
same,relative viability,[4]; first compound 0.2 µM,0.907
same,relative viability,[4]; first compound 0.6325 µM,0.919
same,relative viability,[4]; first compound 2 µM,0.775
NCI-H2009,relative viability,[1]; 0.2 µM,1.17
same,relative viability,[1]; 0.6325 µM,0.969
same,relative viability,[1]; 2 µM,1.01
same,relative viability,[1]; 6.325 µM,0.984
same,relative viability,[1]; 20 µM,0.874
same,relative viability,[2]; 0.02 µM,1.03
same,relative viability,[2]; 0.06325 µM,1.14
same,relative viability,[2]; 0.2 µM,1.11
same,relative viability,[2]; 0.6325 µM,1.17
same,relative viability,[2]; 2 µM,1.02
same,relative viability,[3]; 0.01 µM,0.997
same,relative viability,[3]; 0.03162 µM,0.922
same,relative viability,[3]; 0.1 µM,0.907
same,relative viability,[3]; 0.3162 µM,0.866
same,relative viability,[3]; 1 µM,0.649
same,relative viability,[4]; first compound 0.02 µM,1.04
same,relative viability,[4]; first compound 0.06325 µM,1.2
same,relative viability,[4]; first compound 0.2 µM,1.18
same,relative viability,[4]; first compound 0.6325 µM,1.08
same,relative viability,[4]; first compound 2 µM,0.988
NCI-H2023,relative viability,[1]; 0.2 µM,1.37
same,relative viability,[1]; 0.6325 µM,0.899
same,relative viability,[1]; 2 µM,1.02
same,relative viability,[1]; 6.325 µM,1.1
same,relative viability,[1]; 20 µM,1.06
same,relative viability,[2]; 0.02 µM,0.928
same,relative viability,[2]; 0.06325 µM,0.975
same,relative viability,[2]; 0.2 µM,0.998
same,relative viability,[2]; 0.6325 µM,1.19
same,relative viability,[2]; 2 µM,0.906
same,relative viability,[3]; 0.01 µM,0.988
same,relative viability,[3]; 0.03162 µM,0.988
same,relative viability,[3]; 0.1 µM,1.13
same,relative viability,[3]; 0.3162 µM,0.762
same,relative viability,[3]; 1 µM,0.808
same,relative viability,[4]; first compound 0.02 µM,0.695
same,relative viability,[4]; first compound 0.06325 µM,0.629
same,relative viability,[4]; first compound 0.2 µM,0.575
same,relative viability,[4]; first compound 0.6325 µM,0.666
same,relative viability,[4]; first compound 2 µM,0.625
NCI-H2085,relative viability,[1]; 0.2 µM,1.07
same,relative viability,[1]; 0.6325 µM,0.957
same,relative viability,[1]; 2 µM,1.01
same,relative viability,[1]; 6.325 µM,0.933
same,relative viability,[1]; 20 µM,1.18
same,relative viability,[2]; 0.02 µM,1.04
same,relative viability,[2]; 0.06325 µM,0.975
same,relative viability,[2]; 0.2 µM,1.01
same,relative viability,[2]; 0.6325 µM,1.01
same,relative viability,[2]; 2 µM,0.966
same,relative viability,[3]; 0.01 µM,1.04
same,relative viability,[3]; 0.03162 µM,0.904
same,relative viability,[3]; 0.1 µM,1.05
same,relative viability,[3]; 0.3162 µM,0.915
same,relative viability,[3]; 1 µM,0.97
same,relative viability,[4]; first compound 0.02 µM,0.86
same,relative viability,[4]; first compound 0.06325 µM,0.871
same,relative viability,[4]; first compound 0.2 µM,0.851
same,relative viability,[4]; first compound 0.6325 µM,0.95
same,relative viability,[4]; first compound 2 µM,0.655
NCI-H2087,relative viability,[1]; 0.2 µM,1.33
same,relative viability,[1]; 0.6325 µM,0.87
same,relative viability,[1]; 2 µM,0.89
same,relative viability,[1]; 6.325 µM,0.935
same,relative viability,[1]; 20 µM,1.13
same,relative viability,[2]; 0.02 µM,1.05
same,relative viability,[2]; 0.06325 µM,0.975
same,relative viability,[2]; 0.2 µM,1.14
same,relative viability,[2]; 0.6325 µM,1.01
same,relative viability,[2]; 2 µM,1
same,relative viability,[3]; 0.01 µM,1.04
same,relative viability,[3]; 0.03162 µM,0.796
same,relative viability,[3]; 0.1 µM,0.796
same,relative viability,[3]; 0.3162 µM,0.617
same,relative viability,[3]; 1 µM,0.639
same,relative viability,[4]; first compound 0.02 µM,0.982
same,relative viability,[4]; first compound 0.06325 µM,0.888
same,relative viability,[4]; first compound 0.2 µM,0.922
same,relative viability,[4]; first compound 0.6325 µM,0.908
same,relative viability,[4]; first compound 2 µM,0.988
NCI-H2126,relative viability,[1]; 0.2 µM,1.07
same,relative viability,[1]; 0.6325 µM,0.974
same,relative viability,[1]; 2 µM,0.976
same,relative viability,[1]; 6.325 µM,0.995
same,relative viability,[1]; 20 µM,1.11
same,relative viability,[2]; 0.02 µM,1.02
same,relative viability,[2]; 0.06325 µM,1.02
same,relative viability,[2]; 0.2 µM,0.973
same,relative viability,[2]; 0.6325 µM,1.03
same,relative viability,[2]; 2 µM,0.967
same,relative viability,[3]; 0.01 µM,1.04
same,relative viability,[3]; 0.03162 µM,0.949
same,relative viability,[3]; 0.1 µM,0.951
same,relative viability,[3]; 0.3162 µM,0.855
same,relative viability,[3]; 1 µM,0.72
same,relative viability,[4]; first compound 0.02 µM,0.966
same,relative viability,[4]; first compound 0.06325 µM,1.06
same,relative viability,[4]; first compound 0.2 µM,1.06
same,relative viability,[4]; first compound 0.6325 µM,1.11
same,relative viability,[4]; first compound 2 µM,1.05
NCI-H2170,relative viability,[1]; 0.2 µM,1.08
same,relative viability,[1]; 0.6325 µM,1.01
same,relative viability,[1]; 2 µM,0.999
same,relative viability,[1]; 6.325 µM,0.878
same,relative viability,[1]; 20 µM,0.988
same,relative viability,[2]; 0.02 µM,0.923
same,relative viability,[2]; 0.06325 µM,0.98
same,relative viability,[2]; 0.2 µM,0.996
same,relative viability,[2]; 0.6325 µM,0.972
same,relative viability,[2]; 2 µM,0.943
same,relative viability,[3]; 0.01 µM,0.957
same,relative viability,[3]; 0.03162 µM,0.896
same,relative viability,[3]; 0.1 µM,0.877
same,relative viability,[3]; 0.3162 µM,0.755
same,relative viability,[3]; 1 µM,0.716
same,relative viability,[4]; first compound 0.02 µM,1.12
same,relative viability,[4]; first compound 0.06325 µM,1.2
same,relative viability,[4]; first compound 0.2 µM,1.09
same,relative viability,[4]; first compound 0.6325 µM,1.22
same,relative viability,[4]; first compound 2 µM,1.14
